Experimental data reported in patent publication US12060385B2, “Compounds for RNA capping and uses thereof” (GUANGZHOU HENOVCOM BIOSCIENCE CO., LTD., priority 2022, dated 2024).

The molecules below were run against T7 RNA Polymerase (Escherichia phage T7, UniProt P00573). Settings: 20 μL transcription system, Cap1 Analog 4 mM, 37° C. 2 to 3 hours.
Type: biochemical
Method: • 1) A plasmid was linearized and the DNA template was purified. • 2) mRNA was synthesized in vitro with 51 types of capping structures of the present disclosure, or without any cap analogues. CleanCap®AG (3′OMe) (Trilink, N-7413) was applied as positive control group, uncapped mRNA was negative control group, and DNAase/RNase-Free water was a blank control group.
The system was incubated for 2 to 3 hours at 37° C. and digested by TURBO DNase for 15 min LiCl was used to precipitate mRNA for at least 30 min, or overnight, mRNA precipitates were then washed with 75% ethanol. After ethanol was quickly volatilized, mRNA was re-solubilized with RNase-Free water. • 3) The transcribed products were purified and the transcription yields were calculated.

Sequence of T7 RNA Polymerase (P00573 whole entry): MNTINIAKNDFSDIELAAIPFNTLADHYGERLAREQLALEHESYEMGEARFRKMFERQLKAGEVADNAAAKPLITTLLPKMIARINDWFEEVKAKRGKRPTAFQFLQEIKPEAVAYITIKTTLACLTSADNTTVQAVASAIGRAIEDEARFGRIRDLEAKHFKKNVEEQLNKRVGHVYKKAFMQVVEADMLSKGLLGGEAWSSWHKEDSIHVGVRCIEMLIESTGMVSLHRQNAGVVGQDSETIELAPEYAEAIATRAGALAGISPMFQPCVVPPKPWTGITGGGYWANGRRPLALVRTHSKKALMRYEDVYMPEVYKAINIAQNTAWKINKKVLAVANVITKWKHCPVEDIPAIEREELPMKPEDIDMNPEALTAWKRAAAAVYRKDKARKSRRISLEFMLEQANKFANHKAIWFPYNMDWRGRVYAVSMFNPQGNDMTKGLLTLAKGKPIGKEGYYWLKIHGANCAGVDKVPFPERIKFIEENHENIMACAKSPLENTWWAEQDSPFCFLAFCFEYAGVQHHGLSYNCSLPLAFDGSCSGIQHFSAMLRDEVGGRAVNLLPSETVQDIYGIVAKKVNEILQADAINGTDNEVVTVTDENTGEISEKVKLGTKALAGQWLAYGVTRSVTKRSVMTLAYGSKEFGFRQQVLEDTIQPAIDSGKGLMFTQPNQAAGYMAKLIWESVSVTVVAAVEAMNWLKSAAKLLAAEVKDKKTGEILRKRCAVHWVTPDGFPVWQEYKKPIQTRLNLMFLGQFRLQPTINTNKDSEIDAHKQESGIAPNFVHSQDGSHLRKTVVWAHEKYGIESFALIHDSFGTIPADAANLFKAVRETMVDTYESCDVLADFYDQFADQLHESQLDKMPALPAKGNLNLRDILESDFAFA

Structure (SMILES)	Final product mass obtained from the 20 μL of mRNA transcription system [µg]
CO[C@@H]1[C@H](CNC(C)=O)[C@@H](COP(=O)(O)OP(=O)(O)OP(=O)(O)OC[C@H]2O[C@@H](n3cnc4c(N)ncnc43)[C@H](OC)[C@@H]2OP(=O)(O)OC[C@H]2O[C@@H](n3cnc4c(=O)[nH]c(N)nc43)[C@H](O)[C@@H]2O)O[C@H]1n1c[n+](C)c2c(=O)[nH]c(N)nc21 [Compound 641]	89
CO[C@@H]1[C@H](OP(=O)([O-])OC[C@H]2O[C@@H](n3cnc4c(=O)[nH]c(N)nc43)[C@H](O)[C@@H]2O)[C@@H](CSP(=O)(O)OP(=O)(O)OP(=O)(O)OC[C@H]2O[C@@H](n3c[n+](C)c4c(=O)[nH]c(N)nc43)[C@H](O)[C@@H]2CNC(C)=O)O[C@H]1n1cnc2c(N)ncnc21 [Compound 561]	108
COC[C@H]1[C@@H](O)[C@H](n2c[n+](C)c3c(=O)[nH]c(N)nc32)O[C@@H]1COP(=O)(O)OP(=O)(O)OP(=O)(O)OP(=O)(O)OC[C@H]1O[C@@H](n2cnc3c(N)ncnc32)[C@H](OC)[C@@H]1OP(=O)(O)OC[C@H]1O[C@@H](n2cnc3c(=O)[nH]c(N)nc32)[C@H](O)[C@@H]1O [Compound 189]	92
CO[C@@H]1[C@H](OP(=O)([O-])OC[C@H]2O[C@@H](n3cnc4c(=O)[nH]c(N)nc43)[C@H](O)[C@@H]2O)[C@@H](COP(=O)(O)OP(=O)(O)OP(=O)(O)OC[C@H]2O[C@@H](n3c[n+](C)c4c(=O)[nH]c(N)nc43)[C@H](O)[C@@H]2CN=[N+]=[N-])O[C@H]1n1cnc2c(N)ncnc21 [Compound 635]	118
CO[C@@H]1[C@H](OP(=O)(O)OC[C@H]2O[C@@H](n3cnc4c(=O)[nH]c(N)nc43)[C@H](O)[C@@H]2O)[C@@H](COP(=O)(O)OP(=O)(O)OP(=O)(O)OC[C@H]2O[C@@H](n3c[n+](C)c4c(=O)[nH]c(N)nc43)[C@H](O)[C@@H]2CO)O[C@H]1n1cnc2c(N)ncnc21 [Compound 137]	116
CNC(=O)C[C@H]1[C@@H](O)[C@H](n2c[n+](C)c3c(=O)[nH]c(N)nc32)O[C@@H]1COP(=O)(O)OP(=O)(O)OP(=O)(O)OC[C@H]1O[C@@H](n2cnc3c(N)ncnc32)[C@H](OC)[C@@H]1OP(=O)(O)OC[C@H]1O[C@@H](n2ccc(=O)[nH]c2=O)[C@H](O)[C@@H]1O [Compound 394]	107
CO[C@@H]1[C@H](OP(=O)(O)OC[C@H]2O[C@@H](n3cnc4c(=O)[nH]c(N)nc43)[C@H](O)[C@@H]2O)[C@@H](COP(=O)(O)CP(=O)(O)OP(=O)(O)OC[C@H]2O[C@@H](n3c[n+](C)c4c(=O)[nH]c(N)nc43)[C@H](O)[C@@H]2CNC(C)=O)O[C@H]1n1cnc2c(N)ncnc21 [Compound 329]	110
C#CCOCC[C@H]1[C@@H](O)[C@H](n2c[n+](C)c3c(=O)[nH]c(N)nc32)O[C@@H]1COP(=O)(O)OP(=O)(O)OP(=O)(O)OC[C@H]1O[C@@H](n2cnc3c(N)ncnc32)[C@H](OC)[C@@H]1OP(=O)(O)OC[C@H]1O[C@@H](n2cnc3c(=O)[nH]c(N)nc32)[C@H](O)[C@@H]1O [Compound 51]	114
COC[C@@H]1[C@@H](COP(=O)(O)OP(=O)([O-])OP(=O)([O-])OC[C@H]2O[C@@H](n3cnc4c(N)ncnc43)[C@H](OC)[C@@H]2NP(=O)(O)OC[C@H]2O[C@@H](n3cnc4c(=O)[nH]c(N)nc43)[C@H](O)[C@@H]2O)OC(n2c[n+](C)c3c(=O)[nH]c(N)nc32)[C@@H]1O.[Na+] (stereo partly drawn) [Compound 195]	69
COCC[C@H]1[C@@H](O)[C@H](n2c[n+](C)c3c(=O)[nH]c(N)nc32)O[C@@H]1COP(=O)(O)OP(=O)(O)OP(=O)(O)OC[C@H]1O[C@@H](n2cnc3c(N)ncnc32)[C@H](OC)[C@@H]1OP(=O)([O-])OC[C@H]1O[C@@H](n2cnc3c(=O)[nH]c(N)nc32)[C@H](O)[C@@H]1O [Compound 5]	95
CNc1ncnc2c1ncn2[C@@H]1O[C@H](COP(=O)(O)OP(=O)(O)OP(=O)(O)OC[C@H]2O[C@@H](n3c[n+](C)c4c(=O)[nH]c(N)nc43)[C@H](O)[C@@H]2COC)[C@@H](OP(=O)([O-])OC[C@H]2O[C@@H](n3cnc4c(=O)[nH]c(N)nc43)[C@H](O)[C@@H]2O)[C@H]1OC [Compound 197]	121
CCO[C@@H]1[C@H](OP(=O)(O)OC[C@H]2O[C@@H](n3cnc4c(=O)[nH]c(N)nc43)[C@H](O)[C@@H]2O)[C@@H](COP(=O)(O)OP(=O)(O)OP(=O)(O)OCC2O[C@@H](n3c[n+](C)c4c(=O)[nH]c(N)nc43)[C@H](O)[C@@H]2COC)O[C@H]1n1cnc2c(N)ncnc21 (stereo partly drawn) [Compound 203]	96
CNC(=O)OC[C@H]1[C@@H](O)[C@H](n2c[n+](C)c3c(=O)[nH]c(N)nc32)O[C@@H]1COP(=O)(O)OP(=O)(O)OP(=O)(O)OC[C@H]1O[C@@H](n2cnc3c(N)ncnc32)[C@H](OC)[C@@H]1OP(=O)([O-])OC[C@H]1O[C@@H](n2cnc3c(=O)[nH]c(N)nc32)[C@H](O)[C@@H]1O [Compound 631]	105
CO[C@@H]1[C@H](OP(=O)([O-])OC[C@H]2O[C@@H](n3cnc4c(=O)[nH]c(N)nc43)[C@H](O)[C@@H]2O)[C@@H](COP(=O)(O)OP(=O)(O)OP(=O)(O)OC[C@H]2O[C@@H](n3c[n+](C)c4c(=O)[nH]c(N)nc43)[C@H](O)[C@@H]2CCO)O[C@H]1n1cnc2c(N)ncnc21 [Compound 153]	65
CCCCCCNC(=O)C[C@H]1[C@@H](O)[C@H](n2c[n+](C)c3c(=O)[nH]c(N)nc32)O[C@@H]1COP(=O)(O)OP(=O)(O)OP(=O)(O)OC[C@H]1O[C@@H](n2cnc3c(N)ncnc32)[C@H](OC)[C@@H]1OP(=O)([O-])OC[C@H]1O[C@@H](n2cnc3c(=O)[nH]c(N)nc32)[C@H](O)[C@@H]1O [Compound 643]	121
COC[C@H]1[C@@H](O)[C@H](n2c[n+](C)c3c(=O)[nH]c(N)nc32)O[C@@H]1COP(=O)(O)CP(=O)(O)OP(=O)(O)OC[C@H]1O[C@@H](n2cnc3c(N)ncnc32)[C@H](OC)[C@@H]1OP(=O)(O)OC[C@H]1O[C@@H](n2cnc3c(=O)[nH]c(N)nc32)[C@H](O)[C@@H]1O [Compound 171]	105
CO[C@@H]1[C@H](OP(=O)([O-])OC[C@H]2O[C@@H](n3cnc4c(=O)[nH]c(N)nc43)[C@H](O)[C@@H]2O)[C@@H](COP(=O)(O)OP(=O)(O)OP(=O)(O)OC[C@H]2O[C@@H](n3c[n+](C)c4c(=O)[nH]c(N)nc43)[C@H](O)[C@@H]2CNC(=O)c2ccccc2)O[C@H]1n1cnc2c(N)ncnc21 [Compound 309]	112
COC[C@H]1[C@@H](O)[C@H](n2c[n+](C)c3c(=O)[nH]c(N)nc32)O[C@@H]1COP(=O)(O)OP(=O)(O)OP(=O)(O)OC[C@H]1O[C@@H](n2cnc3c(N)ncnc32)[C@H](OC)[C@@H]1OCOC[C@H]1O[C@@H](n2cnc3c(=O)[nH]c(N)nc32)[C@H](O)[C@@H]1O [Compound 199]	95
CO[C@@H]1[C@H](OP(=O)(O)OC[C@H]2O[C@@H](n3cnc4c(=O)[nH]c(N)nc43)[C@H](O)[C@@H]2O)[C@@H](COP(=O)(O)CP(=O)(O)OP(=O)(O)OC[C@H]2O[C@@H](n3c[n+](C)c4c(=O)[nH]c(N)nc43)[C@H](O)[C@@H]2CC(=O)N(C)C)O[C@H]1n1cnc2c(N)ncnc21 [Compound 421]	98
CO[C@@H]1[C@H](OP(=O)(O)OC[C@H]2O[C@@H](n3cnc4c(=O)[nH]c(N)nc43)[C@H](O)[C@@H]2O)[C@@H](COP(=O)(O)OP(=O)(O)OP(=O)(O)OC[C@H]2O[C@@H](n3c[n+](C)c4c(=O)[nH]c(N)nc43)[C@H](O)[C@@H]2CNC(=O)N(C)C)O[C@H]1n1cnc2c(N)ncnc21 [Compound 639]	94
COCCNC(=O)C[C@@H]1[C@@H](COP(=O)(O)OP(=O)(O)OP(=O)(O)OC[C@H]2O[C@@H](n3cnc4c(N)ncnc43)[C@H](OC)[C@@H]2OP(=O)([O-])OC[C@H]2O[C@@H](n3cnc4c(=O)[nH]c(N)nc43)[C@H](O)[C@@H]2O)OC(n2c[n+](C)c3c(=O)[nH]c(N)nc32)[C@@H]1O (stereo partly drawn) [Compound 58]	115
CO[C@@H]1[C@H](OP(=O)([O-])OC[C@H]2O[C@@H](n3cnc4c(=O)[nH]c(N)nc43)[C@H](O)[C@@H]2O)[C@@H](COP(=O)(O)OP(=O)(O)OP(=O)(O)OC[C@H]2O[C@@H](n3c[n+](C)c4c(=O)[nH]c(N)nc43)[C@H](O)[C@@H]2CNC=O)O[C@H]1n1cnc2c(N)ncnc21 [Compound 299]	105
CCCCOC[C@H]1[C@@H](O)[C@H](n2c[n+](C)c3c(=O)[nH]c(N)nc32)O[C@@H]1COP(=O)(O)OP(=O)(O)OP(=O)(O)OC[C@H]1O[C@@H](n2cnc3c(N)ncnc32)[C@H](OC)[C@@H]1OP(=O)(O)OC[C@H]1O[C@@H](n2cnc3c(=O)[nH]c(N)nc32)[C@H](O)[C@@H]1O [Compound 151]	110
CO[C@@H]1[C@H](OP(=O)([O-])OC[C@H]2O[C@@H](n3cnc4c(=O)[nH]c(N)nc43)[C@H](O)[C@@H]2O)[C@@H](COP(=O)(O)OP(=O)(O)OP(=O)(O)OC[C@H]2O[C@@H](n3c[n+](C)c4c(=O)[nH]c(N)nc43)[C@H](O)[C@@H]2CNS(C)(=O)=O)O[C@H]1n1cnc2c(N)ncnc21 [Compound 311]	88
